Experimental data published in patent US20230382920A1, “SHMT Inhibitors” (The Trustees of Princeton University, priority 2020, published 2023).
Structures can show the parent of a compound that is named as a salt.

Legend:
[1] = Pharmacokinetics study of KDG-0271 in male CD1 mice (Example 4); format: in vivo; conditions: for F: bioavailability vs 1 mg/kg IV; for AUC(0-inf) / AUC(0-t) / Cmax / Tmax / half-life / concentration at 0.25 h / concentration at 0.5 h / concentration at 1 h / concentration at 2 h / concentration at 4 h / concentration at 8 h / MRT inf: mouse, plasma; for MRT inf: read-out: MRTInf_obs
Protocol: A standard PK study of KDG-0271 was performed in male CD1 mice dosed with a single intravenous, oral or intraperitoneal dose of KDG-0271. The parameters of the PK study are described in Table 26. Dosing solutions were freshly made prior to use, and were in the form of a suspension. […] For IV and IP, after collection, plasma samples from the same time point were pooled, and the pooled samples were analyzed by LC/MS/MS.
Sample preparation and analysis were conducted in accordance with the method described in Example 3.
(§1) BLOQ=Below quantifiable limit of 1 ng/mL. PK parameters were estimated by non-compartmental model using WinNonlin 6.1. The PO bioavailability (F %) was calculated as following:
(§2) AUClast-PO/AUCINF-PO>80%: F=(AUCINF-PO*DoseIV)/(mean AUCINF-IV*DosePO) AUClast-PO/AUCINF-PO≤80% or AUCINF was not available: F=(AUClast-PO*DoseIV)/(mean AUClast-IV*DosePO).
(§3) The IP bioavailability (F %) was calculated as following:
(§4) AUClast-IP/AUCINF-IP>80%: F=(AUCINF-IP*DoseIV)/(mean AUCINF-IV*DoseIP) AUClast-IP/AUCINF-IP≤80% or AUCINF was not available: F=(AUClast-IP*DoseIV)/(mean AUClast-IV*DoseIP).

[2] = Pharmacokinetics study of KDG-0320-0A in male CD1 mice (Example 1); format: in vivo; conditions: for F: bioavailability vs 1 mg/kg IV; for MRT inf: read-out: MRTInf_obs
Protocol: A standard pharmacokinetic (PK) study of KDG-0320-0A was performed in male CD1 mice dosed with a single oral, intravenous or intraperitoneal dose of KDG-0320-0A. The parameters of the PK study are described in Table 2. Dosing solutions were freshly made prior to use. […] For IV, PO and IP, after collection, plasma samples from the same time point were pooled, and the pooled samples were analyzed by LC/MS/MS.
The desired serial concentrations of working solutions were achieved by diluting stock solution of analyte with 50% acetonitrile in water solution. 5 μL of working solutions (2, 4, 10, 20, 100, 200, 1000, 2000 ng/mL) were added to 10 μL of blank CD1 mouse plasma to achieve calibration standards of 1-1000 ng/mL (1, 2, 5, 10, 50, 100, 500, 1000 ng/mL) in a total volume of 15 μL. Four quality control (QC) samples at 2 ng/mL, 5 ng/mL, 50 ng/mL and 800 ng/mL for plasma were prepared independently of those used for the calibration curves. These QC samples were prepared on the day of analysis in the same way as calibration standards.
15 μL standards, 15 μL QC samples and 15 μL unknown samples from the blood sampling (10 μL plasma with 5 μL blank solution) were added to 200 μL of acetonitrile containing IS mixture for precipitating protein. Then, the samples were vortexed for 30 seconds. After centrifugation at 4 degrees Celsius, 4000 rpm for 15 minutes, the supernatant was diluted three times with water. 15 μL of diluted supernatant was injected into the LC/MS/MS system for quantitative analysis.
as §1, §2, §3, §4

[3] = 30 mg/kg IP, read-out: Concentration IP_Mean
[4] = 50 mg/kg PO, read-out: Concentration PO_Mean
[5] = single dose 1 mg/kg IV, 50 mg/kg PO or 30 mg/kg IP, entire experiment
[6] = mouse, plasma, 1 mg/kg IV, read-out: Concentration IV_Mean
[7] = mouse, plasma, 30 mg/kg IP, read-out: Concentration IP_Mean
[8] = mouse, plasma, 50 mg/kg PO, read-out: Concentration PO_Mean

In the case of `Cc1n[nH]c2c1C(c1cc(C#CC3CN(C(=O)OC(C)(C)C)C3)cc(CO)c1)(C(C)C)C(C#N)=C(N)O2` (stereo not drawn) [KDG-0271, tert-butyl 3-[2-(3-[6-amino-5-cyano-4-isopropyl-3-methyl-1H-pyrano[2,3-c]pyrazol-4-yl]-5-(hydroxymethyl)phenyl)ethynyl]azetidine-1-carboxylate], the AUC_%Extrap_obs ([1]; 30 mg/kg IP) is reported as 2.65%, the AUClast/D ([1]; 30 mg/kg IP) is reported as 174 kg·ng·h/mL/mg and the F ([1]; 30 mg/kg IP) is reported as 179%. For the same compound, the AUC_%Extrap_obs ([1]; 50 mg/kg PO) was 0.172%, the AUClast/D ([1]; 50 mg/kg PO) was 38.1 kg·ng·h/mL/mg and the F ([1]; 50 mg/kg PO) was 38.1%. It also gave an AUC(0-inf) ([1]; 30 mg/kg IP) of 5360 ng·h/mL, an AUC(0-t) ([1]; 30 mg/kg IP) of 5220 ng·h/mL and a Cmax ([1]; 30 mg/kg IP) of 3170 ng/mL. For the same compound, the Tmax ([1]; 30 mg/kg IP) was 0.25 h, the half-life ([1]; 30 mg/kg IP) was 1.6 h and the concentration at 0.25 h [1, 3] was 3170 ng/mL. The concentration at 0.5 h [1, 3] was 2420 ng/mL, the concentration at 1 h [1, 3] was 1580 ng/mL and the concentration at 2 h [1, 3] was 841 ng/mL. The concentration at 4 h [1, 3] was 317 ng/mL, the concentration at 8 h [1, 3] was 61.4 ng/mL and the MRT inf ([1]; 30 mg/kg IP) was 1.98 h. For the same compound, the AUC(0-inf) ([1]; 50 mg/kg PO) was 1910 ng·h/mL, the AUC(0-t) ([1]; 50 mg/kg PO) was 1900 ng·h/mL and the Cmax ([1]; 50 mg/kg PO) was 872 ng/mL. The Tmax ([1]; 50 mg/kg PO) was 0.5 h, the half-life ([1]; 50 mg/kg PO) was 0.851 h and the concentration at 0.25 h [1, 4] was 750 ng/mL. For the same compound, the concentration at 0.5 h [1, 4] was 872 ng/mL, the concentration at 1 h [1, 4] was 857 ng/mL and the concentration at 2 h [1, 4] was 350 ng/mL. The concentration at 4 h [1, 4] was 72 ng/mL, the concentration at 8 h [1, 4] was 2.67 ng/mL and the MRT inf ([1]; 50 mg/kg PO) was 1.49 h. For the same compound, the clinical symptoms [1, 5] was “No abnormal clinical symptoms were observed”.

Work on `Cc1n[nH]c2c1C(c1cc(C#C[C@H]3CC[C@H](NC(=O)OC(C)(C)C)CC3)cc(CO)c1)(C(C)C)C(C#N)=C(N)O2` (stereo partly drawn) [KDG-0320, tert-butyl N-[(1r,4r)-4-[2-(3-[6-amino-5-cyano-4-isopropyl-3-methyl-1H-pyrano[2,3-c]pyrazol-4-yl]-5-(hydroxymethyl)phenyl)ethynyl]cyclohexyl]carbamate hydrochloride] yielded an AUC_%Extrap_obs ([2]; 1 mg/kg IV) of 2.88%, an AUClast/D ([2]; 1 mg/kg IV) of 155 kg·ng·h/mL/mg and a Cl_obs ([2]; 1 mg/kg IV) of 104 mL/min/kg. It also gave a Vss_obs ([2]; 1 mg/kg IV) of 3.96 L/kg, an AUC_%Extrap_obs ([2]; 30 mg/kg IP) of 1.41% and an AUClast/D ([2]; 30 mg/kg IP) of 258 kg·ng·h/mL/mg. For the same compound, the F ([2]; 30 mg/kg IP) was 164%, the AUC_%Extrap_obs ([2]; 50 mg/kg PO) was 1.77% and the AUClast/D ([2]; 50 mg/kg PO) was 32.5 kg·ng·h/mL/mg. For the same compound, the F ([2]; 50 mg/kg PO) was 20.8%, the AUC(0-inf) ([2]; mouse, plasma, 1 mg/kg IV) was 160 ng·h/mL and the AUC(0-t) ([2]; mouse, plasma, 1 mg/kg IV) was 155 ng·h/mL. For the same compound, the C0 ([2]; mouse, plasma, 1 mg/kg IV) was 575 ng/mL, the half-life ([2]; mouse, plasma, 1 mg/kg IV) was 1.04 h and the concentration at 0.083 h ([2]; mouse, plasma, 1 mg/kg IV, 0.083 h, read-out: Concentration IV_Mean) was 363 ng/mL. For the same compound, the concentration at 0.25 h [2, 6] was 144 ng/mL, the concentration at 0.5 h [2, 6] was 60.2 ng/mL and the concentration at 1 h [2, 6] was 25.7 ng/mL. For the same compound, the concentration at 2 h [2, 6] was 7.16 ng/mL, the concentration at 4 h [2, 6] was 3.07 ng/mL and the MRT inf ([2]; mouse, plasma, 1 mg/kg IV) was 0.632 h. For the same compound, the AUC(0-inf) ([2]; mouse, plasma, 30 mg/kg IP) was 7840 ng·h/mL, the AUC(0-t) ([2]; mouse, plasma, 30 mg/kg IP) was 7730 ng·h/mL and the Cmax ([2]; mouse, plasma, 30 mg/kg IP) was 7460 ng/mL. For the same compound, the Tmax ([2]; mouse, plasma, 30 mg/kg IP) was 0.25 h, the half-life ([2]; mouse, plasma, 30 mg/kg IP) was 1.66 h and the concentration at 0.25 h [2, 7] was 7460 ng/mL. For the same compound, the concentration at 0.5 h [2, 7] was 5240 ng/mL, the concentration at 1 h [2, 7] was 3060 ng/mL and the concentration at 2 h [2, 7] was 589 ng/mL. For the same compound, the concentration at 4 h [2, 7] was 211 ng/mL, the concentration at 8 h ([2]; mouse, plasma, 30 mg/kg IP, 8 h, read-out: Concentration IP_Mean) was 46.2 ng/mL and the MRT inf ([2]; mouse, plasma, 30 mg/kg IP) was 1.27 h. The AUC(0-inf) ([2]; mouse, plasma, 50 mg/kg PO) was 1660 ng·h/mL, the AUC(0-t) ([2]; mouse, plasma, 50 mg/kg PO) was 1630 ng·h/mL and the Cmax ([2]; mouse, plasma, 50 mg/kg PO) was 605 ng/mL. It also gave a Tmax ([2]; mouse, plasma, 50 mg/kg PO) of 1 h, a half-life ([2]; mouse, plasma, 50 mg/kg PO) of 1.28 h and a concentration at 0.25 h [2, 8] of 117 ng/mL. It also gave a concentration at 0.5 h [2, 8] of 315 ng/mL, a concentration at 1 h [2, 8] of 605 ng/mL and a concentration at 2 h [2, 8] of 411 ng/mL. The concentration at 4 h [2, 8] was 126 ng/mL, the concentration at 8 h ([2]; mouse, plasma, 50 mg/kg PO, 8 h, read-out: Concentration PO_Mean) was 15.8 ng/mL and the MRT inf ([2]; mouse, plasma, 50 mg/kg PO) was 2.3 h. The “Concentration IV_Mean” value ([2]; plasma, 1 mg/kg IV, 8 h) was “BLOQ” and the clinical symptoms [2, 5] was “No abnormal clinical symptoms were observed”.
